The values below come from publication PMC8113538, “Acute toxicity analysis of an inhibitor of BCL2, Disarib, in rats” (Scientific Reports, 2021).

Data set [1] in a line: Pharmacokinetics in serum of Wistar rats after oral administration (HPLC). It counts as in vivo, Wistar rats (Rattus norvegicus). The following applies: 50 mg/kg b. wt oral. The method, then:
Wistar rats (Rattus norvegicus) were administered with 50 mg/kg Disarib orally, and blood was collected by heart-puncture method following sacrifice at different time points (15 min, 30 min, 1, 2, 4, 6, 8, 10, 12, 24, 48 and 72 h) following treatment. Blood was allowed to clot, and serum was separated by centrifugation (900×g, 10 min) and deproteinized by adding acetonitrile. Samples for standard calibration curve were prepared by spiking 100 μM Disarib in rat plasma. The supernatant was loaded onto a C18 column, and HPLC analysis was performed in acetonitrile:water gradient, as described before[23],[38] (Shimadzu, Kyoto, Japan). Disarib specific peak were acquired at 232 nm wavelength. At least two mice were sacrificed at each time point for the study. Pharmacokinetic parameters were analysed by using LabSolutions software (Shimadzu, Japan), and the values obtained were plotted with GraphPad Prism (ver5.1) software, where C is predicted concentration and t is time. Data was analysed using nonlinear regression analysis. Maximum drug plasma concentration (Cmax) and Time to reach Cmax was determind by area under the curve versus time curve. Clearance (Cl) and steady state volume of distribution (Vss) were calculated respectively by rate of drug elimination and amount of drug in the body at equilibrium condition vs steady state drug concentration in plasma.
The samples were analyzed by HPLC using the Shimadzu HPLC system. LC was carried out on the C18 analytical column. The mobile phase was the gradient of acetonitrile and water. Disarib specific peaks were detected at 232 nm. The injection volume was 20 μl, and the flow rate was 1.2 ml/min. The standard curves were constructed by plotting the peak area vs. concentration of Disarib[40].

Another data set concerns BCL2. Set-up: method as in PMID 28223017, PMID 27693384. Conditions: cited from earlier work.
In a further data set the test system is mice. The following applies: cited from earlier work.
Data set [2] in a line: Stability of Disarib in PBS (HPLC). It is filed as physicochemical. The following applies: 37 °C; 0, 2, 4, 6 h; HPLC peak. On the procedure: (§1) The stability of Disarib (100 μM) was investigated in phosphate-buffered saline (PBS) and in plasma. The blood was collected from rats by heart puncture, and plasma was separated for the study. After the addition of Disarib into plasma or PBS, the mixture was incubated at 37 °C in water bath[25],[26]. The samples were then collected at different time points, 0, 2, 4, and 6 h, mixed manually with acetonitrile (1:1), and analyzed on HPLC[27],[40]. The values plotted represent the mean of three independent experiments. The samples were analyzed by HPLC using the Shimadzu HPLC system. LC was carried out on the C18 analytical column. The mobile phase was the gradient of acetonitrile and water. Disarib specific peaks were detected at 232 nm. The injection volume was 20 μl, and the flow rate was 1.2 ml/min. The standard curves were constructed by plotting the peak area vs. concentration of Disarib[40].

A short description of data set [3]: Disarib solubility assay (shake flask method, HPLC). It is filed as physicochemical. The following applies: Disarib 100 µM. On the procedure:
The solubility of Disarib was determined by the shake flask method, as described earlier. Briefly, Disarib (100 μM) was dissolved in various solvents such as alcohol (40, 60, 80 and 100%), acid (0.1, 0.3 and 0.6 N HCl) and DMSO (25, 50, 75 and 100%). Further, solubility of Disarib was also tested in a combination of alcohol (40, 60%) and acid (0.1, 0.3 N). The suspension was vortexed 2–3 min and kept in a water bath for 5 min, as described before[25],[26],[39]. In each case, the samples were diluted in acetonitrile and analyzed using HPLC in acetonitrile:water gradient[27],[40]. The area under the curve (AUC) was determined by using the software LabSolutions, Shimadzu (Japan). The values used for plotting in GraphPad Prism (ver 5.1) softwarewere the mean of three independent experiments. The samples were analyzed by HPLC using the Shimadzu HPLC system. LC was carried out on the C18 analytical column. The mobile phase was the gradient of acetonitrile and water. Disarib specific peaks were detected at 232 nm. The injection volume was 20 μl, and the flow rate was 1.2 ml/min. The standard curves were constructed by plotting the peak area vs. concentration of Disarib[40].

The nature of data set [4]: In vitro stability of Disarib in plasma (HPLC). Conditions: 80% plasma diluted in PBS; 37 °C; 0, 2, 4, 6 h; HPLC peak. It counts as in vitro ADME, rats. On the procedure:
as §1

The next data set concerns Wistar rats. The data set is described as follows: Single-dose acute toxicity / LD50 determination with general observation. It counts as in vivo, Wistar rats (Rattus norvegicus). On the procedure:
All the studies were designed according to the guidelines of the Central Drug Standard Control Organization (Schedule-Y-CDSCO, Appendix III), India (https://cdsco.gov.in/opencms/opencms/en/Drugs/New-Drugs/). Single-dose toxicity analysis was performed in male Wistar rats. Animals were segregated in groups of five, and Disarib was administered using oral gavage (100, 1000, 2000 mg/kg b. wt.). Carboxymethyl cellulose, used for preparing Disarib, served as vehicle control to feed control animals. Mortality, general appearance, and behavior were initially observed for 24 h. Animals were further observed for 14 days and were further subjected to toxicity analysis.
The median lethal dose was determined in male Wistar rats. […] Disarib was orally administered after making solution using carboxymethyl cellulose (100, 1000, 2000 mg/kg), and lethality was evaluated over 14 days after treatment. Carboxymethyl cellulose treated animals served as vehicle control.
General cage-side examination of the treated and control animals were performed every day during the experiment. General behavior, appearance, skin, hairs, secretion (lachrymation), and death were evaluated daily, according to the guidelines of CDSCO, India[41],[42].
Body weight was recorded on every 4th day from the date of administration of Disarib up to […]. Food and water consumption were monitored every day from the date of administration of the compound. During the present study, on every alternate days ~ 250 g food pellet and ~ 500 ml water were given to each cage (control and treatment groups).

Structures are written as SMILES.

Regarding `O=C1Nc2ccccc2/C1=C/c1c(-c2ccc(Br)cc2)nc2sc(Cc3ccc(Cl)cc3)nn12` [Disarib], the “maximum concentration (Cmax) in serum” value in data set [1] was ~ 18 μg/ml. Besides, the “steady state volume of distribution (Vss)” value in data set [1] (estimated) was 4.16 L/kg. For the same compound, in data set [1] (estimated from rate of drug elimination), the clearance rate was 0.44 mL/min/kg. The compound also displayed a t1/2 in data set [1] (serum) of 36 h. In addition, in data set [1] (serum), the “time to Cmax (Tmax)” value is listed as 24 h. Moreover, the “interaction with BCL2” value with BCL2 was “specifically interacted with BCL2”. For the same compound, the visible toxicity entry in the data set on mice (highest dose 2000 mg/kg oral) is on record as “did not cause any visible toxicity”. Moreover, the LD50 in the data set with mice (oral route) is listed as more than 2000 mg/kg; with Wistar rats (male Wistar rats, single oral dose, 14 days observation), more than 2000 mg/kg b. wt. For the same compound, in the data set with mice (oral, even at the highest dose), the platelet count entry is recorded as “did not affect the platelet count”. Also, the “stability in PBS” value in data set [2] is listed as “stable in PBS up to 6 h”. In addition, the “solubility in HCl” value in data set [3] (0.1, 0.3 and 0.6 N HCl tested) is reported as “soluble only in higher acidic conditions such as 0.3 N HCl”. In data set [3] (HPLC at 232 nm), the “DMSO concentration giving complete dissolution” value is listed as more than 75%. In addition, the “solubility in alcohol in combination with HCl” value in data set [3] (alcohol 40, 60% with HCl) was “soluble in 40% alcohol and 0.3 and 0.6 N HCl”. Also, in data set [4], the stability in plasma result was “gradually decreased in plasma with increasing time”. The “food and water consumption” value with Wistar rats (Wistar rats, 100, 1000, 2000 mg/kg oral, assessed daily) was “no difference in eating and drinking habits”. In addition, the “cage-side signs (behavior, appearance, lachrymation, locomotion, hair, skin)” value in the data set with Wistar rats (Wistar rats, 100, 1000, 2000 mg/kg oral, daily examination) is recorded as “comparable to the vehicle control group”. The body weight result in the data set on Wistar rats (Wistar rats, 100, 1000, 2000 mg/kg oral, weighed every 4 days up to 32 days) was “gradual increase in body weight of the animals, both in control and treated groups”. The “mortality and visible signs of toxicity” value in the data set on Wistar rats (Wistar rats, highest dose 2000 mg/kg b. wt. oral) was “did not cause mortality or any visible sign of toxicity”. Moreover, in the data set with Wistar rats (Wistar rats, single oral dose, estimated), the “Maximum Tolerated Dose (MTD)” value is more than 2000 mg/kg.
